Laboratory results taken from patent publication US5073563A, “Alkoxycoumarins substituted by a heterocyclic radical, their preparation and therapeutic agents containing these compounds” (BASF Aktiengesellschaft, priority 1988, dated 1991).
pIC50: −log10 of the molar value.

Molecular target: T1, MAO A (Rattus norvegicus, UniProt P21396)
T1 construct: determined in dilute rat brain homogenate; from tissue; host or cells: rat brain homogenate
T1 sequence (P21396 1-526): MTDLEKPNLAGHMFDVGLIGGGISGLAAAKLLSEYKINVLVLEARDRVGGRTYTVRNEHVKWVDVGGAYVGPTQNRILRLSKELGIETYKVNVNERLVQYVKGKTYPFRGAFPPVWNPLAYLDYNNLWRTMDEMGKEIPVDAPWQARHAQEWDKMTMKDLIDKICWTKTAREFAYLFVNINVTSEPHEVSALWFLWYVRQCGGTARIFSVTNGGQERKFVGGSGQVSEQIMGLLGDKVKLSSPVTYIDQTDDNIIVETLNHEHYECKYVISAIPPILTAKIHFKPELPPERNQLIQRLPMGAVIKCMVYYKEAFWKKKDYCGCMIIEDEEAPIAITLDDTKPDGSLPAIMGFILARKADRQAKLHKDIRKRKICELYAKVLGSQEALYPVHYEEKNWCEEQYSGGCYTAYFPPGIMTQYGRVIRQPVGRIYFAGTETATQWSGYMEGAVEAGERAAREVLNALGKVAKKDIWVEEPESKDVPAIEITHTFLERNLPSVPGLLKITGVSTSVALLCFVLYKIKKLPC
Test: MAO A inhibition in dilute rat brain homogenate (14C substrate, 20 min at 37° C)
Assay type: biochemical
Conditions: 14C-phenylethylamine or 14C-tryptamine 0.4 μmol/l, logit-log regression
Protocol: (§1) The MAO-inhibiting activity of the novel compounds can be determined using standard methods. […] The mixture was incubated for 20 minutes at 37° C.
(§2) The blank value was determined in similar mixtures with an incubation time of t=0 min.
(§3) From the inhibitory values determined at the various inhibitor concentrations against a control, the mean inhibitory concentration (IC50) was calculated by linear regression following logit-log transformation.

Point of comparison: `Cc1c(C)c2ccc(OCC3COc4ccccc4O3)cc2oc1=O` (stereo not drawn) [Example 21, 7-(Benzodioxan-2-yl)-methoxy-3,4-dimethylcoumarin], pIC50 ~5.00. Against it:
- Cc1nnc(COc2ccc3c(C)c(C)c(=O)oc3c2)s1 [Example 2, 3,4-Dimethyl-7-(2-methyl-1,3,4-thiadiazol-5-yl)-methoxycoumarin] — 0.44 log units higher, 5.44
- Cc1cc(COc2ccc3c(C)c(C)c(=O)oc3c2)on1 [Example 3, 3,4-Dimethyl-7-(3-methylisoxazol-5-yl)-methoxycoumarin] — 0.82 log units higher, 5.82
- CCCc1cc(COc2ccc3c(C)c(C)c(=O)oc3c2)on1 [Example 4, 3,4-Dimethyl-7-(3-n-propylisoxazol-5-yl)-methoxycoumarin] — the same, ~5.00
- COCc1cc(COc2ccc3c(C)c(C)c(=O)oc3c2)on1 [Example 6, 7-(3-Methoxymethylisoxazol-5-yl)-methoxy-3,4-dimethylcoumarin] — the same, ~5.00
- CCc1nnc(COc2ccc3c(C)c(C)c(=O)oc3c2)o1 [Example 7, 7-(2-Ethyl-1,3,4-oxadiazol-5-yl)-methoxy-3,4-dimethylcoumarin] — the same, ~5.00
- Cc1c(Cl)c(=O)oc2cc(OCc3csc(C4CC4)n3)c(Cl)cc12 [Example 10, 3,6-Dichloro-4-methyl-7-(2-cyclopropylthiazol-4-yl)-methoxycoumarin] — lower, < 5.00
- Cc1nnc(COc2ccc3cc(C)c(=O)oc3c2)s1 [Example 13, 3-Methyl-7-(2-methyl-1,3,4-thiadiazol-5-yl)-methoxycoumarin] — lower, < 5.00
- Cc1c(C)c2ccc(OCc3coc(Cc4ccccc4)c3)cc2oc1=O [Example 22, 7-(2-Benzylfuran-4-yl)-methoxy-3,4-dimethylcoumarin] — lower, < 5.00
- Cc1nc(COc2ccc3c(C)c(C)c(=O)oc3c2)cs1 [Example 24, 3,4-Dimethyl-7-(2-methylthiazol-4-yl)-methoxycoumarin] — the same, ~5.00
- Cc1c(C)c2ccc(OCc3coc(Cc4cccc(Cl)c4)c3)cc2oc1=O [Example 25, 7-[2-(3-Chlorobenzyl)-furan-4-yl]-methoxy-3,4-dimethylcoumarin] — lower, < 5.00
- Cc1c(C)c2ccc(OCc3cc(C(C)C)n(C)n3)cc2oc1=O [Example 29, 7-(5-Isopropyl-1-methylpyrazol-3-yl)-methoxy-3,4-dimethylcoumarin] — lower, < 5.00
- Cc1nnc(COc2ccc3c(C)c(Cl)c(=O)oc3c2)s1 [Example 30, 3-Chloro-4-methyl-7-(2-methyl-1,3,4-thiadiazol-5-yl)-methoxycoumarin] — lower, < 5.00
- Cc1nnc(COc2ccc3c4c(c(=O)oc3c2)CCCC4)s1 [Example 32, 3,4-Tetramethylen-7-(2-methyl-1,3,4-thiadiazol-5-yl)-methoxycoumarin] — lower, < 5.00
- Cc1c(C)c2ccc(OCc3cc(C(C)C)no3)cc2oc1=O [Example 33, 7-(3-Isopropylisoxazol-5-yl)-methoxy-3,4-dimethylcoumarin] — 0.22 log units higher, ~5.22

Molecular target: T2, MAO B (Rattus norvegicus, UniProt P19643)
T2 construct: determined in dilute rat brain homogenate; from tissue; host or cells: rat brain homogenate
T2 sequence (P19643 1-520): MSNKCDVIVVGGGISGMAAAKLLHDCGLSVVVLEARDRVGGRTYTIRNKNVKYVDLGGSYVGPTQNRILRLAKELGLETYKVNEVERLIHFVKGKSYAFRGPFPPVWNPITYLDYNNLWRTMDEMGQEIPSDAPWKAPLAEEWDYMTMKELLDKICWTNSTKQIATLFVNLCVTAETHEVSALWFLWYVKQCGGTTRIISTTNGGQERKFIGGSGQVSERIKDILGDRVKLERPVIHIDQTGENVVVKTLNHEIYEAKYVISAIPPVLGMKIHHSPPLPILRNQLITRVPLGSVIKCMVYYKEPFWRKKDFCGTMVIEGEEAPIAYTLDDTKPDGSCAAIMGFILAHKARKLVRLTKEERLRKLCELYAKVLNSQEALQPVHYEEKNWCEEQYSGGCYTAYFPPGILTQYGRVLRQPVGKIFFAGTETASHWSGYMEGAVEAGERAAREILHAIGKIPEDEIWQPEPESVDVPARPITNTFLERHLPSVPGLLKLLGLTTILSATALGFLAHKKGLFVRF
Test: MAO B inhibition in dilute rat brain homogenate (14C substrate, 20 min at 37° C)
Assay type: biochemical
Conditions: quotient of IC50 MAO A and IC50 MAO B (selectivity for MAO B); 20 min
Protocol: as §1, §2, §3

Point of comparison: `Cc1cc(COc2ccc3c(C)c(C)c(=O)oc3c2)on1` [Example 3, 3,4-Dimethyl-7-(3-methylisoxazol-5-yl)-methoxycoumarin], “IC50 ratio MAO A / MAO B” value 710. Against it:
- Cc1nnc(COc2ccc3c(C)c(C)c(=O)oc3c2)s1 [Example 2, 3,4-Dimethyl-7-(2-methyl-1,3,4-thiadiazol-5-yl)-methoxycoumarin] — higher, 1200

With `CCCc1cc(COc2ccc3c(C)c(C)c(=O)oc3c2)on1` [Example 4, 3,4-Dimethyl-7-(3-n-propylisoxazol-5-yl)-methoxycoumarin] the “IC50 ratio MAO A / MAO B” value was ~ 5900.
`COCc1cc(COc2ccc3c(C)c(C)c(=O)oc3c2)on1` [Example 6, 7-(3-Methoxymethylisoxazol-5-yl)-methoxy-3,4-dimethylcoumarin] was tested, and the “IC50 ratio MAO A / MAO B” value was ~ 2200.
With `CCc1nnc(COc2ccc3c(C)c(C)c(=O)oc3c2)o1` [Example 7, 7-(2-Ethyl-1,3,4-oxadiazol-5-yl)-methoxy-3,4-dimethylcoumarin] the “IC50 ratio MAO A / MAO B” value was ~ 900.
`Cc1c(Cl)c(=O)oc2cc(OCc3csc(C4CC4)n3)c(Cl)cc12` [Example 10, 3,6-Dichloro-4-methyl-7-(2-cyclopropylthiazol-4-yl)-methoxycoumarin] was tested, and the “IC50 ratio MAO A / MAO B” value was > 4500.
`Cc1nnc(COc2ccc3cc(C)c(=O)oc3c2)s1` [Example 13, 3-Methyl-7-(2-methyl-1,3,4-thiadiazol-5-yl)-methoxycoumarin] was tested, and the “IC50 ratio MAO A / MAO B” value was > 667.
For `Cc1c(C)c2ccc(OCC3COc4ccccc4O3)cc2oc1=O` (stereo not drawn) [Example 21, 7-(Benzodioxan-2-yl)-methoxy-3,4-dimethylcoumarin], the “IC50 ratio MAO A / MAO B” value was ~ 1300.
For `Cc1c(C)c2ccc(OCc3coc(Cc4ccccc4)c3)cc2oc1=O` [Example 22, 7-(2-Benzylfuran-4-yl)-methoxy-3,4-dimethylcoumarin], the “IC50 ratio MAO A / MAO B” value was > 6250.
`Cc1nc(COc2ccc3c(C)c(C)c(=O)oc3c2)cs1` [Example 24, 3,4-Dimethyl-7-(2-methylthiazol-4-yl)-methoxycoumarin] was tested, and the “IC50 ratio MAO A / MAO B” value was ~ 3300.
In the case of `Cc1c(C)c2ccc(OCc3coc(Cc4cccc(Cl)c4)c3)cc2oc1=O` [Example 25, 7-[2-(3-Chlorobenzyl)-furan-4-yl]-methoxy-3,4-dimethylcoumarin], the “IC50 ratio MAO A / MAO B” value was > 590.
In the case of `Cc1c(C)c2ccc(OCc3cc(C(C)C)n(C)n3)cc2oc1=O` [Example 29, 7-(5-Isopropyl-1-methylpyrazol-3-yl)-methoxy-3,4-dimethylcoumarin], the “IC50 ratio MAO A / MAO B” value was > 4500.
In the case of `Cc1nnc(COc2ccc3c(C)c(Cl)c(=O)oc3c2)s1` [Example 30, 3-Chloro-4-methyl-7-(2-methyl-1,3,4-thiadiazol-5-yl)-methoxycoumarin], the “IC50 ratio MAO A / MAO B” value was > 1700.
With `Cc1nnc(COc2ccc3c4c(c(=O)oc3c2)CCCC4)s1` [Example 32, 3,4-Tetramethylen-7-(2-methyl-1,3,4-thiadiazol-5-yl)-methoxycoumarin] the “IC50 ratio MAO A / MAO B” value was > 1400.
In the case of `Cc1c(C)c2ccc(OCc3cc(C(C)C)no3)cc2oc1=O` [Example 33, 7-(3-Isopropylisoxazol-5-yl)-methoxy-3,4-dimethylcoumarin], the “IC50 ratio MAO A / MAO B” value was ~ 8200.

Same assay, conditions: rat brain homogenate; 14C-phenylethylamine or 14C-tryptamine 0.4 μmol/l; 20 minutes at 37° C; logit-log regression

Point of comparison: `Cc1c(Cl)c(=O)oc2cc(OCc3csc(C4CC4)n3)c(Cl)cc12` [Example 10, 3,6-Dichloro-4-methyl-7-(2-cyclopropylthiazol-4-yl)-methoxycoumarin], pIC50 8.66. Against it:
- Cc1nnc(COc2ccc3c(C)c(C)c(=O)oc3c2)s1 [Example 2, 3,4-Dimethyl-7-(2-methyl-1,3,4-thiadiazol-5-yl)-methoxycoumarin] — within 0.2 log units, 8.52
- Cc1cc(COc2ccc3c(C)c(C)c(=O)oc3c2)on1 [Example 3, 3,4-Dimethyl-7-(3-methylisoxazol-5-yl)-methoxycoumarin] — within 0.2 log units, 8.68
- CCCc1cc(COc2ccc3c(C)c(C)c(=O)oc3c2)on1 [Example 4, 3,4-Dimethyl-7-(3-n-propylisoxazol-5-yl)-methoxycoumarin] — within 0.2 log units, 8.77
- COCc1cc(COc2ccc3c(C)c(C)c(=O)oc3c2)on1 [Example 6, 7-(3-Methoxymethylisoxazol-5-yl)-methoxy-3,4-dimethylcoumarin] — 0.32 log units lower, 8.34
- CCc1nnc(COc2ccc3c(C)c(C)c(=O)oc3c2)o1 [Example 7, 7-(2-Ethyl-1,3,4-oxadiazol-5-yl)-methoxy-3,4-dimethylcoumarin] — 0.70 log units lower, 7.96
- Cc1nnc(COc2ccc3cc(C)c(=O)oc3c2)s1 [Example 13, 3-Methyl-7-(2-methyl-1,3,4-thiadiazol-5-yl)-methoxycoumarin] — 0.84 log units lower, 7.82
- Cc1c(C)c2ccc(OCC3COc4ccccc4O3)cc2oc1=O (stereo not drawn) [Example 21, 7-(Benzodioxan-2-yl)-methoxy-3,4-dimethylcoumarin] — 0.55 log units lower, 8.11
- Cc1c(C)c2ccc(OCc3coc(Cc4ccccc4)c3)cc2oc1=O [Example 22, 7-(2-Benzylfuran-4-yl)-methoxy-3,4-dimethylcoumarin] — within 0.2 log units, 8.80
- Cc1nc(COc2ccc3c(C)c(C)c(=O)oc3c2)cs1 [Example 24, 3,4-Dimethyl-7-(2-methylthiazol-4-yl)-methoxycoumarin] — within 0.2 log units, 8.52
- Cc1c(C)c2ccc(OCc3coc(Cc4cccc(Cl)c4)c3)cc2oc1=O [Example 25, 7-[2-(3-Chlorobenzyl)-furan-4-yl]-methoxy-3,4-dimethylcoumarin] — 0.89 log units lower, 7.77
- Cc1c(C)c2ccc(OCc3cc(C(C)C)n(C)n3)cc2oc1=O [Example 29, 7-(5-Isopropyl-1-methylpyrazol-3-yl)-methoxy-3,4-dimethylcoumarin] — the same, 8.66
- Cc1nnc(COc2ccc3c(C)c(Cl)c(=O)oc3c2)s1 [Example 30, 3-Chloro-4-methyl-7-(2-methyl-1,3,4-thiadiazol-5-yl)-methoxycoumarin] — 0.42 log units lower, 8.24
- Cc1nnc(COc2ccc3c4c(c(=O)oc3c2)CCCC4)s1 [Example 32, 3,4-Tetramethylen-7-(2-methyl-1,3,4-thiadiazol-5-yl)-methoxycoumarin] — 0.51 log units lower, 8.15
- Cc1c(C)c2ccc(OCc3cc(C(C)C)no3)cc2oc1=O [Example 33, 7-(3-Isopropylisoxazol-5-yl)-methoxy-3,4-dimethylcoumarin] — 0.48 log units higher, 9.14
